Assay results taken from the supplement of paper PMC11061612.

Legend:
Assay in all cases: combination Emax (second highest fraction inhibited in the dose matrix, 72 h); higher = more inhibition; extreme values may be limits of the assay
[1] = system: BICR78 (Oral Cavity Carcinoma)
Outline: (§1)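 Cell lines in DMEM/F12 or RPMI with 10% FBS were plated in 1536-well plates, held 24 hours at 37°C, 5% CO2, then given two-drug dose matrices for 72 hours (DMSO typically 0.2%). Viability was read by CellTiter-Glo 2.0 luminescence and scaled as inhibition from 0 (vehicle wells) to 1 (blank wells). Combination Emax is the second-highest inhibition in the matrix; Bliss excess is observed combination effect minus expected EA + EB − EA·EB, EA and EB being single-agent effects.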

CS1 (Chondrosarcoma) = system: CS1 (Chondrosarcoma)
Outline: as §1

[2] = system: D-283MED (Other Solid Carcinomas)
Outline: as §1

D-392MG (Glioblastoma) = system: D-392MG (Glioblastoma)
Outline: as §1

[3] = system: EKVX (Non-Small Cell Lung Carcinoma)
Outline: as §1

[4] = system: ETK-1 (Biliary Tract Carcinoma)
Outline: as §1

[5] = system: GDM-1 (Acute Myeloid Leukemia)
Outline: as §1

H4 (Low Grade Glioma) = system: H4 (Low Grade Glioma)
Outline: as §1

[6] = system: HCT-116 (Colorectal Carcinoma)
Outline: as §1

[7] = system: HLE (Hepatocellular Carcinoma)
Outline: as §1

[8] = system: HOP-92 (Non-Small Cell Lung Carcinoma)
Outline: as §1

[9] = system: MEG-01 (Chronic Myelogenous Leukemia)
Outline: as §1

[10] = system: NCI-H1688 (Small Cell Lung Carcinoma)
Outline: as §1

[11] = system: RCC10RGB (Kidney Carcinoma)
Outline: as §1

[12] = system: SKN-3 (Head and Neck Carcinoma)
Outline: as §1

[13] = system: SLVL (B-Cell Non-Hodgkin's Lymphoma)
Outline: as §1

[14] = system: SNG-M (Endometrial Carcinoma)
Outline: as §1

Saos-2 (Osteosarcoma) = system: Saos-2 (Osteosarcoma)
Outline: as §1

[15] = system: WSU-DLCL2 (B-Cell Non-Hodgkin's Lymphoma)
Outline: as §1

[16] = system: U-118-MG (Low Grade Glioma)
Outline: as §1

Compound	combination Emax [1]	combination Emax (CS1 (Chondrosarcoma))	combination Emax [2]	combination Emax (D-392MG (Glioblastoma))	combination Emax [3]	combination Emax [4]	combination Emax [5]	combination Emax (H4 (Low Grade Glioma))	combination Emax [6]	combination Emax [7]	combination Emax [8]	combination Emax [9]	combination Emax [10]	combination Emax [11]	combination Emax [12]	combination Emax [13]	combination Emax [14]	combination Emax (Saos-2 (Osteosarcoma))	combination Emax [15]	combination Emax [16]
C=CCn1c(=O)c2cnc(Nc3ccc(N4CCN(C)CC4)cc3)nc2n1-c1cccc(C(C)(C)O)n1 [AZD1775] + O=C(c1cc(Cc2n[nH]c(=O)c3ccccc23)ccc1F)N1CCN(C(=O)C2CC2)CC1 [Olaparib] (first compound max 1 µM, partner max 10 µM)	0.362	0.564	1	0.235	0.256	0.515	0.827	0.853	0.635	0.823	0.596	0.845	0.6	0.52	0.171	0.915	0.668	0.613	0.992	–
CN(CCO)CC[C@H](CSc1ccccc1)Nc1ccc(S(=O)(=O)NC(=O)c2ccc(N3CCC([C@@H](O)c4ccccc4-c4ccc(Cl)cc4)CC3)cc2)cc1S(=O)(=O)C(F)(F)F [AZD4320] + Cn1cnc2c(F)c(Nc3ccc(Br)cc3Cl)c(C(=O)NOCCO)cc21 [Selumetinib] (first compound max 1 µM, 7x7, partner max 3 µM)	0.508	0.847	0.918	0.483	0.314	0.3	1	0.418	0.709	0.504	0.963	–	0.468	0.576	0.355	0.966	0.526	0.517	0.959	0.842
Cc1c2c(nn1C)CSCc1cc(n(C)n1)CSc1cc(c3ccccc3c1)OCCCc1c(C(=O)O)n(C)c3c-2c(Cl)ccc13 [AZD5991] + C[C@@H](Nc1cc(F)cc(F)c1)c1cc(C(=O)N(C)C)cc2c(=O)cc(N3CCOCC3)oc12 [AZD8186] (first compound max 1 µM, 7x7, partner max 3 µM)	0.189	0.235	0.342	0.301	0.29	0.306	0.767	0.656	0.248	–	0.587	0.416	0.339	0.557	0.31	0.47	0.311	0.491	1	0.45
CC(=O)c1c(C)c2cnc(Nc3ccc(N4CCNCC4)cn3)nc2n(C2CCCC2)c1=O [Palbociclib] + CC1(C)CCC(CN2CCN(c3ccc(C(=O)NS(=O)(=O)c4ccc(NCC5CCOCC5)c([N+](=O)[O-])c4)c(Oc4cnc5[nH]ccc5c4)c3)CC2)=C(c2ccc(Cl)cc2)C1 [Venetoclax] (first compound max 10 µM, 7x7, partner max 1 µM)	0.092	0.354	0.668	0.223	–	0.281	0.892	0.597	0.559	0.0796	0.145	0.484	0.0922	0.476	0	0.325	0.424	0.197	0.98	0.229
CC(=O)c1c(C)c2cnc(Nc3ccc(N4CCNCC4)cn3)nc2n(C2CCCC2)c1=O [Palbociclib] + Cc1c2c(nn1C)CSCc1cc(n(C)n1)CSc1cc(c3ccccc3c1)OCCCc1c(C(=O)O)n(C)c3c-2c(Cl)ccc13 [AZD5991] (first compound max 10 µM, 7x7, partner max 1 µM)	0.232	0.304	0.797	0.4	–	0.303	0.824	0.601	0.663	0.211	0.293	0.668	0.381	0.419	0.244	0.471	0.485	0.332	0.991	0.322
CC(=O)c1c(C)c2cnc(Nc3ccc(N4CCNCC4)cn3)nc2n(C2CCCC2)c1=O [Palbociclib] + Cn1cnc2c(F)c(Nc3ccc(Br)cc3Cl)c(C(=O)NOCCO)cc21 [Selumetinib] (first compound max 10 µM, 7x7, partner max 10 µM)	0.315	0.408	0.582	0.262	–	0.347	0.555	0.632	0.851	0.143	0.458	0.855	0.147	0.547	0.349	0.593	0.296	0.232	0.834	0.296
CCc1c2c(nc3ccc(O)cc13)-c1cc3c(c(=O)n1C2)COC(=O)[C@]3(O)CC [SN-38] + O=C(c1cc(Cc2n[nH]c(=O)c3ccccc23)ccc1F)N1CCN(C(=O)C2CC2)CC1 [Olaparib] (first compound max 0.3 µM, 7x7, partner max 10 µM)	0.786	0.846	0.947	0.435	0.3	0.63	–	0.938	0.9	0.945	–	0.755	0.534	–	–	1	0.62	0.96	1	–
C[C@@H](c1ccc2nccn2c1)n1nnc2ncc(-c3cnn(C)c3)nc21 [Savolitinib] + CC1(C)CCC(CN2CCN(c3ccc(C(=O)NS(=O)(=O)c4ccc(NCC5CCOCC5)c([N+](=O)[O-])c4)c(Oc4cnc5[nH]ccc5c4)c3)CC2)=C(c2ccc(Cl)cc2)C1 [Venetoclax] (first compound max 1 µM, 7x7, partner max 1 µM)	0.201	0.343	0.126	0.266	–	0.0864	0.515	0.218	0.114	0.155	0.201	0.0651	0.239	0.195	0.148	0.406	0.246	0.121	0.304	0.218
C[C@@H](c1ccc2nccn2c1)n1nnc2ncc(-c3cnn(C)c3)nc21 [Savolitinib] + Cc1c2c(nn1C)CSCc1cc(n(C)n1)CSc1cc(c3ccccc3c1)OCCCc1c(C(=O)O)n(C)c3c-2c(Cl)ccc13 [AZD5991] (first compound max 1 µM, 7x7, partner max 1 µM)	0.231	0.266	0.725	0.31	–	0.141	0.208	0.298	0.162	0.164	0.197	0.148	0.314	0.289	0.216	0.374	0.32	0.229	0.985	0.258
Cn1cnc2c(F)c(Nc3ccc(Br)cc3Cl)c(C(=O)NOCCO)cc21 [Selumetinib] + C=CCn1c(=O)c2cnc(Nc3ccc(N4CCN(C)CC4)cc3)nc2n1-c1cccc(C(C)(C)O)n1 [AZD1775] (first compound max 10 µM, partner max 1 µM)	0.344	0.386	0.956	0.263	–	0.384	0.898	0.739	0.785	0.345	0.503	0.974	0.525	0.591	0.477	0.797	0.555	0.551	0.961	0.327
Cn1cnc2c(F)c(Nc3ccc(Br)cc3Cl)c(C(=O)NOCCO)cc21 [Selumetinib] + CC(C)n1c(=O)n(C)c2cnc3cc(F)c(-c4ccc(OCCCN5CCCCC5)nc4)cc3c21 [AZD1390] (first compound max 10 µM, 7x7, partner max 0.3 µM)	0.3	0.256	0.148	0.145	–	0.122	0.165	0.13	0.664	0.122	0.402	0.671	0.223	0.437	0.228	0.448	0.187	0.153	0.14	0.178
Cn1cnc2c(F)c(Nc3ccc(Br)cc3Cl)c(C(=O)NOCCO)cc21 [Selumetinib] + CCN(CCO)CCCOc1ccc2c(Nc3cc(CC(=O)Nc4cccc(F)c4)[nH]n3)ncnc2c1 [AZD2811] (first compound max 10 µM, 7x7, partner max 1 µM)	0.322	0.266	0.476	0.197	–	0.158	0.861	0.306	0.792	0.235	0.495	0.788	0.169	0.505	0.27	0.639	0.261	0.472	0.127	0.287
Cn1cnc2c(F)c(Nc3ccc(Br)cc3Cl)c(C(=O)NOCCO)cc21 [Selumetinib] + C[C@@H]1COCCN1C2=NC(=NC(=C2)C3(CC3)[S@](=N)(=O)C)C4=C5C=CNC5=NC=C4 [AZD6738] (first compound max 10 µM, 7x7, partner max 10 µM)	0.592	0.472	0.988	0.302	–	0.587	0.755	0.672	0.8	0.404	0.398	0.975	0.165	0.513	0.457	0.671	0.866	0.456	0.762	0.479
